Data reported in PubChem BioAssay (NCI).
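Five compound concentrations were applied to cells in 96-well plates for 48 hours; endpoints were derived by simple linear interpolation of the resulting dose-response curve. GI50: concentration for 50% inhibition of growth. At the TGI there is no net growth.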

Legend:
Test in all cases: NCI tumour cell line growth inhibition, 48 h
786-0 renal = tested on: 786-0 renal
A498 renal = tested on: A498 renal
A549 NSCLC = tested on: A549 NSCLC
ACHN renal = tested on: ACHN renal
BT-549 breast = tested on: BT-549 breast
CAKI-1 renal = tested on: CAKI-1 renal
CCRF-CEM leukemia = tested on: CCRF-CEM leukemia
COLO 205 colon = tested on: COLO 205 colon
DU-145 prostate = tested on: DU-145 prostate
EKVX NSCLC = tested on: EKVX NSCLC
HCC-2998 colon = tested on: HCC-2998 colon
HCT-116 colon = tested on: HCT-116 colon
HCT-15 colon = tested on: HCT-15 colon
HL-60(TB) leukemia = tested on: HL-60(TB) leukemia
HOP-62 NSCLC = tested on: HOP-62 NSCLC
HOP-92 NSCLC = tested on: HOP-92 NSCLC
HS 578T breast = tested on: HS 578T breast
HT29 colon = tested on: HT29 colon
IGROV1 ovarian = tested on: IGROV1 ovarian
K-562 leukemia = tested on: K-562 leukemia
KM12 colon = tested on: KM12 colon
LOX IMVI melanoma = tested on: LOX IMVI melanoma
M14 melanoma = tested on: M14 melanoma
MALME-3M melanoma = tested on: MALME-3M melanoma
MCF7 breast = tested on: MCF7 breast
MDA-MB-231 breast = tested on: MDA-MB-231 breast
MDA-MB-435 = tested on: MDA-MB-435
MOLT-4 leukemia = tested on: MOLT-4 leukemia
NCI-H226 lung = tested on: NCI-H226 lung
NCI-H23 lung = tested on: NCI-H23 lung
NCI-H460 lung = tested on: NCI-H460 lung
NCI-H522 lung = tested on: NCI-H522 lung
NCI/ADR-RES ovarian = tested on: NCI/ADR-RES ovarian
OVCAR-4 ovarian = tested on: OVCAR-4 ovarian
OVCAR-5 ovarian = tested on: OVCAR-5 ovarian
OVCAR-8 ovarian = tested on: OVCAR-8 ovarian
PC-3 prostate = tested on: PC-3 prostate
RPMI-8226 leukemia = tested on: RPMI-8226 leukemia
RXF 393 renal = tested on: RXF 393 renal
SF-268 CNS = tested on: SF-268 CNS
SF-295 CNS = tested on: SF-295 CNS
SF-539 CNS = tested on: SF-539 CNS
SK-MEL-2 melanoma = tested on: SK-MEL-2 melanoma
SK-MEL-28 melanoma = tested on: SK-MEL-28 melanoma
SK-MEL-5 melanoma = tested on: SK-MEL-5 melanoma
SK-OV-3 ovarian = tested on: SK-OV-3 ovarian
SN12C renal = tested on: SN12C renal
SNB-19 CNS = tested on: SNB-19 CNS
SNB-75 CNS = tested on: SNB-75 CNS
SR leukemia = tested on: SR leukemia
SW-620 colon = tested on: SW-620 colon
T-47D breast = tested on: T-47D breast
TK-10 renal = tested on: TK-10 renal
U251 CNS = tested on: U251 CNS
UACC-257 melanoma = tested on: UACC-257 melanoma
UACC-62 melanoma = tested on: UACC-62 melanoma
UO-31 renal = tested on: UO-31 renal

## CC[C@]12CC(C(=O)OC)=C3Nc4ccccc4[C@@]34CCN(C14)[C@@H]1c3cc4c(cc3O[C@@H]1[C@H]2O)NC1=C(C(=O)OC)C[C@@]2(CC)C3N(CC[C@@]143)C[C@H]1O[C@H]12 (some centres not stated)
786-0 renal
  GI50: 274 nM
  TGI: > 50000 nM
A498 renal
  GI50: 193 nM
  TGI: 1160 nM
A549 NSCLC
  GI50: 510 nM
  TGI: > 44400 nM
ACHN renal
  GI50: 320 nM
  TGI: 5650 nM
BT-549 breast
  GI50: 889 nM
  TGI: 8260 nM
CAKI-1 renal
  GI50: 122 nM
  TGI: > 20400 nM
CCRF-CEM leukemia
  GI50: 590 nM
  TGI: > 50000 nM
COLO 205 colon
  GI50: 278 nM
  TGI: 1010 nM
DU-145 prostate
  GI50: 1850 nM
  TGI: > 50000 nM
EKVX NSCLC
  GI50: 600 nM
  TGI: > 50000 nM
HCC-2998 colon
  GI50: 492 nM
  TGI: 1700 nM
HCT-116 colon
  GI50: 367 nM
  TGI: 2840 nM
HCT-15 colon
  GI50: 160 nM
  TGI: 6400 nM
HL-60(TB) leukemia
  GI50: 86.2 nM
  TGI: > 50000 nM
HOP-62 NSCLC
  GI50: 201 nM
  TGI: > 50000 nM
HOP-92 NSCLC
  GI50: 134 nM
  TGI: 2070 nM
HS 578T breast
  GI50: 337 nM
  TGI: > 50000 nM
HT29 colon
  GI50: 226 nM
  TGI: > 25400 nM
IGROV1 ovarian
  GI50: 349 nM
  TGI: > 50000 nM
K-562 leukemia
  GI50: 220 nM
  TGI: > 50000 nM
KM12 colon
  GI50: 636 nM
  TGI: > 50000 nM
LOX IMVI melanoma
  GI50: 167 nM
  TGI: 721 nM
M14 melanoma
  GI50: 423 nM
  TGI: > 20600 nM
MALME-3M melanoma
  GI50: 504 nM
  TGI: 21000 nM
MCF7 breast
  GI50: 109 nM
  TGI: > 50000 nM
MDA-MB-231 breast
  GI50: 311 nM
  TGI: > 50000 nM
MDA-MB-435
  GI50: 370 nM
  TGI: 8770 nM
MOLT-4 leukemia
  GI50: 912 nM
  TGI: > 50000 nM
NCI-H226 lung
  GI50: 509 nM
  TGI: > 11300 nM
NCI-H23 lung
  GI50: 632 nM
  TGI: > 36200 nM
NCI-H460 lung
  GI50: 812 nM
  TGI: > 30700 nM
NCI-H522 lung
  GI50: 224 nM
  TGI: 2930 nM
NCI/ADR-RES ovarian
  GI50: 290 nM
  TGI: > 50000 nM
OVCAR-4 ovarian
  GI50: 548 nM
  TGI: > 50000 nM
OVCAR-5 ovarian
  GI50: 614 nM
  TGI: > 50000 nM
OVCAR-8 ovarian
  GI50: 480 nM
  TGI: > 50000 nM
PC-3 prostate
  GI50: 403 nM
  TGI: > 50000 nM
RPMI-8226 leukemia
  GI50: 185 nM
  TGI: 1440 nM
RXF 393 renal
  GI50: 483 nM
  TGI: 1900 nM
SF-268 CNS
  GI50: 1270 nM
  TGI: > 50000 nM
SF-295 CNS
  GI50: 317 nM
  TGI: > 50000 nM
SF-539 CNS
  GI50: 417 nM
  TGI: > 50000 nM
SK-MEL-2 melanoma
  GI50: 537 nM
  TGI: 5040 nM
SK-MEL-28 melanoma
  GI50: 974 nM
  TGI: > 50000 nM
SK-MEL-5 melanoma
  GI50: 583 nM
  TGI: 1320 nM
SK-OV-3 ovarian
  GI50: 296 nM
SN12C renal
  GI50: 641 nM
  TGI: > 50000 nM
SNB-19 CNS
  GI50: 443 nM
  TGI: > 50000 nM
SNB-75 CNS
  GI50: 97.2 nM
SR leukemia
  GI50: 183 nM
  TGI: > 50000 nM
SW-620 colon
  GI50: 840 nM
  TGI: > 20700 nM
T-47D breast
  GI50: 616 nM
  TGI: > 50000 nM
TK-10 renal
  GI50: 130 nM
  TGI: 3060 nM
U251 CNS
  GI50: 738 nM
  TGI: 4720 nM
UACC-257 melanoma
  GI50: 363 nM
  TGI: 10200 nM
UACC-62 melanoma
  GI50: 89.5 nM
  TGI: 1180 nM
UO-31 renal
  GI50: 148 nM
  TGI: > 50000 nM

## COc1ccc(/C=N/Nc2ccnc3cc(Cl)ccc23)cc1Cl
A498 renal
  GI50: 1720 nM
  TGI: 3220 nM
A549 NSCLC
  GI50: 1770 nM
  TGI: 3570 nM
ACHN renal
  GI50: 1950 nM
  TGI: 3420 nM
CAKI-1 renal
  GI50: 1680 nM
  TGI: 3100 nM
CCRF-CEM leukemia
  GI50: 2140 nM
  TGI: 5930 nM
COLO 205 colon
  GI50: 1820 nM
  TGI: 3370 nM
HL-60(TB) leukemia
  GI50: 1960 nM
  TGI: 4790 nM
HOP-92 NSCLC
  GI50: 1380 nM
  TGI: 2950 nM
HS 578T breast
  GI50: 1990 nM
  TGI: 4280 nM
HT29 colon
  GI50: 1530 nM
  TGI: 3010 nM
IGROV1 ovarian
  GI50: 1910 nM
  TGI: 3710 nM
KM12 colon
  GI50: 2080 nM
  TGI: 4320 nM
MALME-3M melanoma
  GI50: 1900 nM
  TGI: 3540 nM
MDA-MB-231 breast
  GI50: 1930 nM
  TGI: 3550 nM
MDA-MB-435
  GI50: 1790 nM
  TGI: 3390 nM
MOLT-4 leukemia
  GI50: 2200 nM
  TGI: 5350 nM
NCI-H460 lung
  GI50: 2040 nM
  TGI: 4030 nM
NCI-H522 lung
  GI50: 1690 nM
  TGI: 3300 nM
OVCAR-4 ovarian
  GI50: 1830 nM
  TGI: 3560 nM
OVCAR-5 ovarian
  GI50: 1850 nM
  TGI: 3490 nM
PC-3 prostate
  GI50: 1640 nM
  TGI: 3120 nM
RPMI-8226 leukemia
  GI50: 2200 nM
  TGI: 5240 nM
RXF 393 renal
  GI50: 1750 nM
  TGI: 3210 nM
SF-268 CNS
  GI50: 1900 nM
  TGI: 3690 nM
SF-295 CNS
  GI50: 1790 nM
  TGI: 3360 nM
SF-539 CNS
  GI50: 1800 nM
  TGI: 3260 nM
SK-MEL-2 melanoma
  GI50: 1790 nM
  TGI: 3330 nM
SK-MEL-28 melanoma
  GI50: 1750 nM
  TGI: 3210 nM
SK-MEL-5 melanoma
  GI50: 1770 nM
  TGI: 3210 nM
SK-OV-3 ovarian
  GI50: 1820 nM
  TGI: 3270 nM
SN12C renal
  GI50: 1750 nM
  TGI: 3440 nM
SNB-19 CNS
  GI50: 1930 nM
  TGI: 3730 nM
SNB-75 CNS
  GI50: 1550 nM
  TGI: 3060 nM
SR leukemia
  GI50: 707 nM
  TGI: 5510 nM
SW-620 colon
  GI50: 1900 nM
  TGI: 3760 nM
TK-10 renal
  GI50: 1740 nM
  TGI: 3120 nM
U251 CNS
  GI50: 1740 nM
  TGI: 3370 nM
UACC-257 melanoma
  GI50: 1690 nM
  TGI: 3290 nM
UACC-62 melanoma
  GI50: 1760 nM
  TGI: 3270 nM
UO-31 renal
  GI50: 1680 nM
  TGI: 3100 nM
